Data published in patent EP0672658B1, “Antithrombotic agents” (priority 1994, dated 1995).
Counter-ions that a name gives are not always drawn.

Experiments:
[1] = in vivo; set-up: species or system rats; settings: for % oral/i.v. activity (Rat): screening not completed, activity after p.o. dose given in the legend; for bioavailability: plasma, rat, oral vs i.v.
Description: Each sample population represented alternating sequential time points.

[2] = test system: human or animal plasma; assay: Anticoagulation determination in plasma: prothrombin time (PT); assay type: biochemical; settings: concentration doubling prothrombin time
Outline: (§1)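 Compounds spiked over a concentration range into citrated human, dog or rat plasma. PT used Thromboplastin-C; APTT used Actin reagent 120 s then 0.02 M CaCl2; TT used bovine thrombin 10 NIH units/mL. Concentration doubling clotting time estimated by linear extrapolation.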

[3] = molecular target: Human Thrombin (Homo sapiens, UniProt P00734); assay: biochemical; settings: read-out: Kass Human Thrombin (converted)
[4] = molecular target: t-PA (Homo sapiens, UniProt P00750); assay: biochemical; settings: read-out: Kass t-PA (converted)
Chain of t-PA (P00750 36-562): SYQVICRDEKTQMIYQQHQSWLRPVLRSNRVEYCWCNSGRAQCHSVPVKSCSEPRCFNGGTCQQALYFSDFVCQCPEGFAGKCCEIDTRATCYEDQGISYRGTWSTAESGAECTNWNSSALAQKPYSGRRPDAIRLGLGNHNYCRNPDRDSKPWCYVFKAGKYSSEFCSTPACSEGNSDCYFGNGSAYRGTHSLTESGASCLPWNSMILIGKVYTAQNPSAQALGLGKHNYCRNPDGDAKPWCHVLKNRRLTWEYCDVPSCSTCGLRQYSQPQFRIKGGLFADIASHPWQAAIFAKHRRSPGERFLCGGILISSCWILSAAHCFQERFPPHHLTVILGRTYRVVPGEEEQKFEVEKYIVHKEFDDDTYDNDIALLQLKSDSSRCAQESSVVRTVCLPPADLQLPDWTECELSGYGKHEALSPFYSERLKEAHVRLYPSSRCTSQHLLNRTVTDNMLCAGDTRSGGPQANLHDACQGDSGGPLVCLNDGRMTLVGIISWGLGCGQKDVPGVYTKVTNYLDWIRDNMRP
Outline: (§2)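 Amidase activity of human plasmin and t-PA (nt-PA single-chain; mt-PA6) was measured by a chromogenic method adapted from a thrombin assay. Substrates were H-D-Val-Leu-Lys-p-nitroanilide for plasmin and H-D-Ile-Pro-Arg-p-nitroanilide for t-PA.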

[5] = molecular target: T1, Plasmin (Homo sapiens, UniProt P00747); assay: biochemical; settings: read-out: Kass Plasmin (converted)
T1 construct: Human plasmin is purchased; purchased Boehringer Mannheim, Indianapolis, Indiana
T1 sequence (P00747 581-810 limits assumed): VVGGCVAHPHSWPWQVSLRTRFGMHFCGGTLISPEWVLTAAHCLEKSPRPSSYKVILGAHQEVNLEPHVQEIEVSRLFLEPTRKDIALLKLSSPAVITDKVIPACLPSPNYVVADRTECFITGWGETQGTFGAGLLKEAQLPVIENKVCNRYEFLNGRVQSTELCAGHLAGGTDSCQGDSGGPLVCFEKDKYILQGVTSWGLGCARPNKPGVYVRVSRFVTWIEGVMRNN
T1 sequence (P00747 97-580 partner limits assumed): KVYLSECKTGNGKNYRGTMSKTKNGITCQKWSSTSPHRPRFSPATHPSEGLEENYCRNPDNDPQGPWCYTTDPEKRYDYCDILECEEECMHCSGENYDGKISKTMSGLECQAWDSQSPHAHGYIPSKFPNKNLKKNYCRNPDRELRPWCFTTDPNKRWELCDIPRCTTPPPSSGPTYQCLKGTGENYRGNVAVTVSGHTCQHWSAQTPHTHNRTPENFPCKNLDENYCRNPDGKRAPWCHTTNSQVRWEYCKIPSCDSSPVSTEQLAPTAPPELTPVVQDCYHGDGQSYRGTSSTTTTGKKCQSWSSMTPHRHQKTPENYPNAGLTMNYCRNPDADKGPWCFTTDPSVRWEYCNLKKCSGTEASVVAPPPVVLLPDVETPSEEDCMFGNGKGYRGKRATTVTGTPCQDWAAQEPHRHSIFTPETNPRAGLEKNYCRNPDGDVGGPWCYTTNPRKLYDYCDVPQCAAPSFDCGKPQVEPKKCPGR
Outline: as §2

[6] = test system: human or animal plasma; assay: Anticoagulation determination in plasma: thrombin time (TT); assay type: biochemical; settings: concentration doubling thrombin time
Outline: as §1

[7] = molecular target: factor Xa (Homo sapiens, UniProt P00742); assay: biochemical; settings: read-out: Kass Xa (converted)
Chain of factor Xa (P00742 235-488 limits assumed): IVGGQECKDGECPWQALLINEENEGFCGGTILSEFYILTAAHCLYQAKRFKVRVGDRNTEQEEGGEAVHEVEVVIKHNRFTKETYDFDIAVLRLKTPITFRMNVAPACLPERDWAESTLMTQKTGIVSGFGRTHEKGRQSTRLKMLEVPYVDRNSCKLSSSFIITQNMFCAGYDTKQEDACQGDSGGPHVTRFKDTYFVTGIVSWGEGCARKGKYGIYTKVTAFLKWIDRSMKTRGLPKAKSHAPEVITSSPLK
Chain of factor Xa (P00742 41-179 partner limits assumed): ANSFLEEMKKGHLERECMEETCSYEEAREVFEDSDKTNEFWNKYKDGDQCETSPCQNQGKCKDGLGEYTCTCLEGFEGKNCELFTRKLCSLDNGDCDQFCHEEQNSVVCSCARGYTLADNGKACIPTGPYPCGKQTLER
Outline: (§3)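 Bovine trypsin and human factor Xa amidase activity measured chromogenically, following the human thrombin procedure. Substrates: N-Benzoyl-Ile-Glu-Gly-Arg-p-nitroanilide for factor Xa and N-Benzoyl-Phe-Val-Arg-p-nitroanilide for trypsin. Used for selectivity profiling.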

[8] = test system: human or animal plasma; assay: Anticoagulation determination in plasma: activated partial thromboplastin time (APTT); assay type: biochemical; settings: concentration doubling activated partial thromboplastin time
Outline: as §1

[9] = molecular target: T2, Trypsin (Bos taurus, UniProt P00760); assay: biochemical; set-up: species or system Bovine; settings: read-out: Kass Trypsin (converted)
T2 sequence (P00760 24-246): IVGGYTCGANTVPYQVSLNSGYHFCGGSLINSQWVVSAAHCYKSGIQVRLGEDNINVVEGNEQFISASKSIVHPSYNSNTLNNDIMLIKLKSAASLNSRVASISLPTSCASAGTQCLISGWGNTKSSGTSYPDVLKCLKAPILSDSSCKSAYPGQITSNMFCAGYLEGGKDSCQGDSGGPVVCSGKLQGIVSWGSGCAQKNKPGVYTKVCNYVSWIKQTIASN
Outline: as §3

[10] = Coagulation parameters in plasma of treated rats (TT, APTT, prothrombin time); assay type: in vivo, rat; settings: for plasma thrombin time prolonged: during infusion reducing thrombus weight to approximately 20% of control in the Arterio-Venous shunt model
[11] = Arterio-Venous shunt model; assay type: in vivo, rats; settings: continuous intravenous infusion; for thrombus weight: both compounds to the same extent
Method: […]. Blood circulated through the shunt for 15 minutes before the thread is carefully removed and weighed. The weight of a wet thread is subtracted from the total weight of the thread and thrombus (see J.R. Smith, Br. J. Pharmacol., 77,29 (1982)).

[12] = during infusion in the Arterio-Venous shunt model
Wherever % oral/i.v. activity (Rat) is given: key: NC^1 indicates screening not completed; low or very low activity obsrved at 20 mg/kg p.o; NC^2 indicates screening not completed; low or very low activity observed at 60 mg/kg p.o; NC^3 indicates screening not completed; low or very low activity observed at 50 mg/kg p.o.

| Structure (SMILES) | % oral/i.v. activity (Rat) [1] | Kd [3] [µM] | Kd [4] [µM] | Kd [5] [µM] | Kd [7] [µM] | Kd [9] [µM] | Human Plasma Anticoagulation 2x Clotting time (ng/mL) PT [2] [ng/mL] | Human Plasma Anticoagulation 2x Clotting time (ng/mL) TT [6] [ng/mL] | Human Plasma Anticoagulation 2x Clotting time (ng/mL) APTT [8] [ng/mL] | plasma thrombin time prolonged [10] | thrombus weight [11] | bioavailability [1] [%] | APTT extended [10, 12] | Prothrombin time extended [10, 12] | antithrombotic potency compared with D-MePhe-Pro-Arg-H ([11]; greater than D-MePhe-Pro-Arg-H) [fold] |
| --- | --- | --- | --- | --- | --- | --- | --- | --- | --- | --- | --- | --- | --- | --- | --- |
| CCS(=O)(=O)N[C@H](Cc1ccccc1)C(=O)N1CCC[C@H]1C(=O)NCCc1ccc(C(=N)N)cc1 [Example 26, EtSO2-D-Phe-Pro-p-NHCH2CH2-C6H4C(=NH)NH2·HCl] | NC^1 | 0.0769 | 100 | 100 | 100 | 4.76 | 750 | 37 | 870 |  |  |  |  |  |  |
| CN[C@H](Cc1ccccc1)C(=O)N1CCC[C@H]1C(=O)N[C@H](C=O)CCCNC(=N)N [D-MePhe-Pro-Arg-H, reference compound] |  |  |  |  |  |  |  |  |  | greater than 20 fold | approximately 20 % of control |  |  |  |  |
| CCS(=O)(=O)N[C@H](Cc1ccccc1)C(=O)N1CCC[C@H]1C(=O)NCCCCNC(=N)N [Example 1, EtS02-D-Phe-Pro-Agm·HCl] |  | 0.303 | 12.2 | 100 | 588 | 2.63 |  | 250 |  |  |  | 8 |  |  |  |
| N=C(N)c1ccc(CNC(=O)[C@@H]2CCCN2C(=O)[C@@H](CC2CCCCC2)NCC(=O)O)cc1 [Example 48, HOOCCH2-D-Cha-Pro-p-NHCH2C6H4C(NH)NH2·HCl] |  | 0.000244 | 20 | 2.33 | 0.182 | 0.004 | 59 | 2. | 33 | about 3 fold | approximately 20 % of control |  | about 120 % of control | about 120 % of control | 9 |

Continued, in another order:

| % oral/i.v. activity (Rat) [1] | Kd [3] [µM] | Kd [4] [µM] | Kd [5] [µM] | Kd [7] [µM] | Kd [9] [µM] | Structure (SMILES) | Human Plasma Anticoagulation 2x Clotting time (ng/mL) PT [2] [ng/mL] | Human Plasma Anticoagulation 2x Clotting time (ng/mL) TT [6] [ng/mL] | Human Plasma Anticoagulation 2x Clotting time (ng/mL) APTT [8] [ng/mL] | plasma thrombin time prolonged [10] | thrombus weight [11] | bioavailability [1] [%] | APTT extended [10, 12] | Prothrombin time extended [10, 12] | antithrombotic potency compared with D-MePhe-Pro-Arg-H ([11]; greater than D-MePhe-Pro-Arg-H) [fold] |
| --- | --- | --- | --- | --- | --- | --- | --- | --- | --- | --- | --- | --- | --- | --- | --- |
| NC^2 | 0.0263 | 100 | 8.33 | 14.3 | 0.0233 | N=C(N)c1ccc(CNC(=O)[C@@H]2C[C@@H]3CCCC[C@@H]3N2C(=O)[C@@H]2NCC[C@@H]3CCCC[C@@H]32)cc1 [Example 42, D-1-Piq-cis-Ohi-p-NHCH2C6H4C(NH)NH2·2HCl] | 320 | 20 | 270 |  |  |  |  |  |  |
| NC^2 | 0.0025 | 25 | 1.19 | 0.294 | 0.00106 | N=C(N)c1ccc(CNC(=O)[C@@H]2C[C@@H]3CCCC[C@@H]3N2C(=O)[C@@H](CC2CCCCC2)NCC(=O)O)cc1 [Example 49, HOOCCH2-D-Cha-cis-Ohi-p-NHCH2C6H4C(NH)NH2·HCl] | 130 | 5 | 130 |  |  |  |  |  |  |
| NC^2 | 0.0222 | 100 | 5.56 | 25 | 0.0122 | N=C(N)c1ccc(CNC(=O)[C@@H]2C[C@@H]3CCCC[C@@H]3N2C(=O)[C@@H](Cc2ccccc2)NCC(=O)O)cc1 [Example 47, HOOCCH2-D-Phe-cis-Ohi-p-NHCH2C6H4C(NH)NH2·HCl] | 270 | 12. | 140 |  |  |  |  |  |  |
| NC^2 | 0.00164 | 1.3 | 0.909 | 0.667 | 0.00909 | CCS(=O)(=O)N[C@H](Cc1ccccc1)C(=O)N1[C@H](C(=O)NCc2ccc(C(=N)N)cc2)C[C@@H]2CCCC[C@@H]21 [Example 45, EtSO2-Phe-cis-Ohi-p-NHCH2C6H4C(NH)NH2·HCl] | 330 | 8 | 200 |  |  |  |  |  |  |
|  | 0.1 | 130 | 10 | 10 | 0.0526 | N=C(N)c1ccc(CNC(=O)[C@@H]2C[C@@H]3CCCC[C@@H]3N2C(=O)[C@H]2CCCCN2)cc1 [Example 20, D-hPro-Ohi-p-NHCH2C6H4C(NH)NH2·3HCl] | 600 | 62 | 550 |  |  | 23 |  |  |  |
